These are literature values, as cited in patent publication US8377888B2, “Method of predicting the clinical response to cisplatin or carboplatin chemotherapeutic treatment” (Pangaea Biotech, S.A., priority 2005, dated 2013).

The test system of series [1] is MKN74 (14-3-3σ methylation-positive, wild-type p53).
For series [2], the system named is MKN28 (14-3-3σ methylation-positive, mutated p53).
Series [3] concerns 14-3-3σ methylation-negative cell lines. The following applies: wild-type or mutated p53.
Series [4] has as its system Colon carcinoma cells lacking 14-3-3σ. The following applies: cells initiate but do not maintain G2 arrest.
The test system of series [5] is non-small cell lung cancer (NSCLC). The following applies: per arm of randomized study.

Take `COc1cccc2c1C(=O)c1c(O)c3c(c(O)c1C2=O)C[C@@](O)(C(=O)CO)C[C@@H]3O[C@H]1C[C@H](N)[C@H](O)[C@H](C)O1` [adriamycin]: the Sensitivity to adriamycin entry is on record as “highly sensitive” in series [1], “highly sensitive” in series [2] and “resistant” in series [3]. Also, in series [4], the “Cell fate after adriamycin treatment” value was “mitotic catastrophe and cell death”.

As to paclitaxel/carboplatin, the Median survival in series [5] is given as 8.2 months.
